In patent publication US4742053A, “3-Isoquinoliniomethyl cephalosporin derivatives” (Banyu Pharmaceutical Co., Ltd., priority 1984, dated 1988):
In brackets after ≈: the same amount, converted by molar mass. Like-named read-outs stand apart in the source and are kept apart here.

Key:
[1] = system: A. calcoaceticus No. 14; experiment: MIC by agar plate dilution method; assay type: cell-based; settings: Acinetobacter calcoaceticus
Description: (§1) The minimum inhibitory concentrations (MIC: μg/ml) of the compounds of the present invention against various microorganisms were measured by an agar plate dilution method (inoculum size: 10^6 CFU/ml) by using Sensitivity Disk Agar (Nissui) in comparison with Cefotaxime and Ceftazidime as comparative compounds.
(§2) Minimum Inhibitory Concentration (μg/ml; 10^6 CFU/ml)

[2] = system: C. freundii No. 7; experiment: MIC by agar plate dilution method; assay type: cell-based; settings: Citrobacter freundii
Description: as §1, §2

[3] = system: E. cloaceae Nek 39; experiment: MIC by agar plate dilution method; assay type: cell-based; settings: read-out: Minimum Inhibitory Concentration
Description: as §1, §2

[4] = system: E. coli C/Rms149; experiment: MIC by agar plate dilution method; assay type: cell-based; settings: Escherichia coli, read-out: Minimum Inhibitory Concentration, E. coli C/Rms149; 10^6 CFU/ml
Description: as §1, §2

[5] = system: E. coli CSH2; experiment: MIC by agar plate dilution method; assay type: cell-based; settings: Escherichia coli, 10^6 CFU/ml, read-out: Minimum Inhibitory Concentration
Description: as §1, §2

[6] = system: E. coli CSH; experiment: MIC by agar plate dilution method; assay type: cell-based; settings: Escherichia coli, 10^6 CFU/ml, read-out: Minimum Inhibitory Concentration
Description: as §1, §2

[7] = system: E. coli ML1410/Rte16; experiment: MIC by agar plate dilution method; assay type: cell-based; settings: Escherichia coli, ML1410/RTE16, read-out: Minimum Inhibitory Concentration, E. coli ML1410/Rte16; 10^6 CFU/ml
Description: as §1, §2

[8] = system: E. coli NIHJJC-2; experiment: MIC by agar plate dilution method; assay type: cell-based; settings: Escherichia coli
Description: as §1, §2

[9] = system: E. coli W3630/Rms212; experiment: MIC by agar plate dilution method; assay type: cell-based; settings: Escherichia coli, W3630/RMS212, read-out: Minimum Inhibitory Concentration, E. coli W3630/Rms212; 10^6 CFU/ml
Description: as §1, §2

[10] = system: E. coli W3630/Rms213; experiment: MIC by agar plate dilution method; assay type: cell-based; settings: Escherichia coli, W3630/RMS213, read-out: Minimum Inhibitory Concentration, E. coli W3630/Rms213; 10^6 CFU/ml
Description: as §1, §2

[11] = system: K. pneumoniae No. 42; experiment: MIC by agar plate dilution method; assay type: cell-based; settings: Klebsiella pneumoniae
Description: as §1, §2

[12] = system: P. aeruginosa AK109; experiment: MIC by agar plate dilution method; assay type: cell-based; settings: Pseudomonas aeruginosa
Description: as §1, §2

[13] = system: P. aeruginosa AKR17; experiment: MIC by agar plate dilution method; assay type: cell-based; settings: Pseudomonas aeruginosa
Description: as §1, §2

[14] = system: P. cepacia 23; experiment: MIC by agar plate dilution method; assay type: cell-based
Description: as §1, §2

[15] = system: P. maltophilia IID 1275; experiment: MIC by agar plate dilution method; assay type: cell-based; settings: Stenotrophomonas maltophilia
Description: as §1, §2

[16] = system: P. mirabilis JY10; experiment: MIC by agar plate dilution method; assay type: cell-based; settings: Proteus mirabilis
Description: as §1, §2

[17] = system: P. vulgaris No. 33; experiment: MIC by agar plate dilution method; assay type: cell-based; settings: Proteus vulgaris
Description: as §1, §2

[18] = system: P. vulgaris OB1043; experiment: MIC by agar plate dilution method; assay type: cell-based; settings: Proteus vulgaris
Description: as §1, §2

[19] = system: S. aureus JS-1; experiment: MIC by agar plate dilution method; assay type: cell-based; settings: Staphylococcus aureus
Description: as §1, §2

[20] = system: S. aureus NIHJJC-1; experiment: MIC by agar plate dilution method; assay type: cell-based; settings: Staphylococcus aureus
Description: as §1, §2

[21] = system: S. marcescens No. 16-2; experiment: MIC by agar plate dilution method; assay type: cell-based; settings: Serratia marcescens
Description: as §1, §2

[22] = system: Gram-positive bacteria and Gram-negative bacteria; settings: background, Antimicrobial Agents and Chemotherapy; cited from earlier work
[23] = system: E. coli NIHJ; experiment: bioautography (TLC); assay type: cell-based; settings: TLC Merck silica gel F254, E. coli NIHJ
Description: 2.5 mg of the compound obtained in Example 4 (C) was suspended in 0.5 ml of methanol, and 35 μl of concentrated aqueous ammonia was added thereto. The mixture was left to stand at room temperature for 1 hour. […] The fraction of this peak was separated and freeze-dried to obtain 1 mg of the above identified compound.

[24] = NO.14, A. calcoaceticus No. 14, 10^6 CFU/ml, read-out: Minimum Inhibitory Concentration
[25] = C. freundii No. 7, 10^6 CFU/ml, read-out: Minimum Inhibitory Concentration
[26] = E. cloaceae Nek 39, 10^6 CFU/ml
[27] = NIHJJC2, E. coli NIHJJC-2, 10^6 CFU/ml, read-out: Minimum Inhibitory Concentration
[28] = K. pneumoniae No. 42, 10^6 CFU/ml, read-out: Minimum Inhibitory Concentration
[29] = AK109, P. aeruginosa AK109, 10^6 CFU/ml, read-out: Minimum Inhibitory Concentration
[30] = AKR17, P. aeruginosa AKR17, 10^6 CFU/ml, read-out: Minimum Inhibitory Concentration
[31] = Burkholderia cepacia, P. cepacia 23, 10^6 CFU/ml, read-out: Minimum Inhibitory Concentration
[32] = P. mirabilis JY10, 10^6 CFU/ml, read-out: Minimum Inhibitory Concentration
[33] = P. vulgaris No. 33, 10^6 CFU/ml, read-out: Minimum Inhibitory Concentration
[34] = OB1043, P. vulgaris OB1043, 10^6 CFU/ml, read-out: Minimum Inhibitory Concentration
[35] = JS1, S. aureus JS-1, 10^6 CFU/ml, read-out: Minimum Inhibitory Concentration
[36] = NIHJJC1, S. aureus NIHJJC-1, 10^6 CFU/ml, read-out: Minimum Inhibitory Concentration
[37] = NO.162, S. marcescens No. 16-2, 10^6 CFU/ml, read-out: Minimum Inhibitory Concentration

Row | Compound | MIC [1, 24] | MIC [2, 25] | MIC [3, 26] | MIC [4] | MIC [5] | MIC [6] | MIC [7] | MIC [8, 27] | MIC [9] | MIC [10] | MIC [11, 28] | MIC [12, 29] | MIC [13, 30] | MIC [14, 31] | MIC [16, 32] | MIC [17, 33] | MIC [18, 34] | MIC [19, 35] | MIC [20, 36] | MIC [21, 37] | other results
1 | CO/N=C(\C(=O)N[C@@H]1C(=O)N2C(C(=O)O)=C(COC(C)=O)CS[C@H]12)c1csc(N)n1 [Cefotaxime, reference compound] | 25 µg/mL (≈ 54.9 µM) | 0.39 µg/mL (≈ 0.856 µM) | 0.78 µg/mL (≈ 1.71 µM) | ≤ 0.05 µg/mL | ≤ 0.05 µg/mL | 0.1 µg/mL (≈ 0.22 µM) | ≤ 0.05 µg/mL | ≤ 0.05 µg/mL | ≤ 0.05 µg/mL | 0.2 µg/mL (≈ 0.439 µM) | 0.1 µg/mL (≈ 0.22 µM) | 6.25 µg/mL (≈ 13.7 µM) | > 25 µg/mL | 6.25 µg/mL (≈ 13.7 µM) | ≤ 0.05 µg/mL | ≤ 0.05 µg/mL | 0.39 µg/mL (≈ 0.856 µM) | 6.25 µg/mL (≈ 13.7 µM) | 0.78 µg/mL (≈ 1.71 µM) | 6.25 µg/mL (≈ 13.7 µM) | MIC ([15]; IID1275, P. maltophilia IID 1275, 10^6 CFU/ml, read-out: Minimum Inhibitory Concentration): > 25 µg/mL; antibacterial activities [22]: relatively poor antibacterial activities against Gram-positive bacteria, and excellent activities against Gram-negative bacteria, particularly against Enterobacteriacae
2 | CC(C)(O/N=C(\C(=O)N[C@@H]1C(=O)N2C(C(=O)[O-])=C(C[n+]3ccccc3)CS[C@H]12)c1csc(N)n1)C(=O)O [Ceftazidime, reference compound] | – | – | – | 0.2 µg/mL (≈ 0.366 µM) | ≤ 0.1 µg/mL | ≤ 0.1 µg/mL | 0.2 µg/mL (≈ 0.366 µM) | – | 0.2 µg/mL (≈ 0.366 µM) | 0.2 µg/mL (≈ 0.366 µM) | – | – | – | – | – | – | – | – | – | – | MIC ([1]; NO.14, read-out: Minimum Inhibitory Concentration): 6.25 µg/mL (≈ 11.4 µM); MIC ([2]; NO.7, read-out: Minimum Inhibitory Concentration): 1.56 µg/mL (≈ 2.85 µM); MIC [3]: 0.78 µg/mL (≈ 1.43 µM); MIC ([8]; NIHJJC2, read-out: Minimum Inhibitory Concentration): ≤ 0.1 µg/mL; MIC ([11]; NO.42, read-out: Minimum Inhibitory Concentration): 0.39 µg/mL (≈ 0.714 µM); MIC ([12]; AK109, read-out: Minimum Inhibitory Concentration): 1.56 µg/mL (≈ 2.85 µM); MIC ([13]; AKR17, read-out: Minimum Inhibitory Concentration): > 100 µg/mL; MIC ([14]; Burkholderia cepacia, 23, read-out: Minimum Inhibitory Concentration): 0.39 µg/mL (≈ 0.714 µM); MIC ([15]; IID1275, read-out: Minimum Inhibitory Concentration): > 25 µg/mL; MIC ([16]; JY10, read-out: Minimum Inhibitory Concentration): ≤ 0.1 µg/mL; MIC ([17]; NO.33, read-out: Minimum Inhibitory Concentration): ≤ 0.1 µg/mL; MIC ([18]; OB1043, read-out: Minimum Inhibitory Concentration): ≤ 0.1 µg/mL; MIC ([19]; JS1, read-out: Minimum Inhibitory Concentration): 50 µg/mL (≈ 91.5 µM); MIC ([20]; NIHJJC1, read-out: Minimum Inhibitory Concentration): 3.12 µg/mL (≈ 5.71 µM); MIC ([21]; NO.162, read-out: Minimum Inhibitory Concentration): 1.56 µg/mL (≈ 2.85 µM); antibacterial activities [22]: the most excellent cephalosporin derivative against Gram-positive bacteria including Pseudomonas aeruginosa and Acinetobacter
3 | CO/N=C(\C(=O)NC1C(=O)N2C(C(=O)[O-])=C(C[N+]3(C)CCc4cc(OC(C)=O)c(OC(C)=O)cc4C3)CSC12)c1csc(N)n1 (centres unmarked) [Ex. 4-C, 7-[(Z)-2-(2-aminothiazol-4-yl)-2-methoxyiminoacetamido]-3-(6,7-diacetoxy-2-methyl-1,2,3,4-tetrahydro-2-isoquinolinium)methyl-3-cephem-4-carboxylate] | 0.39 µg/mL (≈ 0.592 µM) | 6.25 µg/mL (≈ 9.49 µM) | ≤ 0.05 µg/mL | ≤ 0.1 µg/mL | 0.1 µg/mL (≈ 0.152 µM) | 1.56 µg/mL (≈ 2.37 µM) | 0.1 µg/mL (≈ 0.152 µM) | < 0.05 µg/mL | ≤ 0.05 µg/mL | 1.56 µg/mL (≈ 2.37 µM) | 0.2 µg/mL (≈ 0.304 µM) | 0.1 µg/mL (≈ 0.152 µM) | 1.56 µg/mL (≈ 2.37 µM) | 0.78 µg/mL (≈ 1.18 µM) | 0.78 µg/mL (≈ 1.18 µM) | 0.2 µg/mL (≈ 0.304 µM) | 1.56 µg/mL (≈ 2.37 µM) | 25 µg/mL (≈ 38 µM) | 3.12 µg/mL (≈ 4.74 µM) | 6.25 µg/mL (≈ 9.49 µM) | antibacterial spot in bioautography [23]: the antibacterial spot of the starting material was at Rf=0.4
